# Experimental data published in BigSolDB 2.1.
smiles,measurement,setting,value
O=[N+]([O-])c1cc(F)c(F)cc1[N+](=O)[O-],solubility (mole fraction),"in 1,2-dichloroethane, 293.15 K",0.000981
same,solubility (mole fraction),"in 1,2-dichloroethane, 298.15 K",0.00112
same,solubility (mole fraction),"in 1,2-dichloroethane, 303.15 K",0.00128
same,solubility (mole fraction),"in 1,2-dichloroethane, 308.15 K",0.00171
same,solubility (mole fraction),"in 1,2-dichloroethane, 313.15 K",0.00229
same,solubility (mole fraction),"in 1,2-dichloroethane, 318.15 K",0.00314
same,solubility (mole fraction),"in 1,2-dichloroethane, 323.15 K",0.00416
same,solubility (mole fraction),"in 1,2-dichloroethane, 328.15 K",0.00553
same,solubility (mole fraction),"in 1,2-dichloroethane, 333.15 K",0.00752
same,solubility (mole fraction),"in benzene, 293.15 K",0.00143
same,solubility (mole fraction),"in benzene, 298.15 K",0.00152
same,solubility (mole fraction),"in benzene, 303.15 K",0.00173
same,solubility (mole fraction),"in benzene, 308.15 K",0.00216
same,solubility (mole fraction),"in benzene, 313.15 K",0.00286
same,solubility (mole fraction),"in benzene, 318.15 K",0.00384
same,solubility (mole fraction),"in benzene, 323.15 K",0.00499
same,solubility (mole fraction),"in benzene, 328.15 K",0.00647
same,solubility (mole fraction),"in benzene, 333.15 K",0.0086
same,solubility (mole fraction),"in chloroform, 293.15 K",0.000875
same,solubility (mole fraction),"in chloroform, 298.15 K",0.000957
same,solubility (mole fraction),"in chloroform, 303.15 K",0.00111
same,solubility (mole fraction),"in chloroform, 308.15 K",0.00156
same,solubility (mole fraction),"in chloroform, 313.15 K",0.00237
same,solubility (mole fraction),"in chloroform, 318.15 K",0.00339
same,solubility (mole fraction),"in chloroform, 323.15 K",0.00456
same,solubility (mole fraction),"in chloroform, 328.15 K",0.00611
same,solubility (mole fraction),"in ethanol, 293.15 K",0.00011
same,solubility (mole fraction),"in ethanol, 298.15 K",0.00014
same,solubility (mole fraction),"in ethanol, 303.15 K",0.000166
same,solubility (mole fraction),"in ethanol, 308.15 K",0.000246
same,solubility (mole fraction),"in ethanol, 313.15 K",0.000339
same,solubility (mole fraction),"in ethanol, 318.15 K",0.00047
same,solubility (mole fraction),"in ethanol, 323.15 K",0.000662
same,solubility (mole fraction),"in ethanol, 328.15 K",0.000906
same,solubility (mole fraction),"in ethanol, 333.15 K",0.00121
same,solubility (mole fraction),"in ethyl acetate, 293.15 K",0.0019
same,solubility (mole fraction),"in ethyl acetate, 298.15 K",0.00215
same,solubility (mole fraction),"in ethyl acetate, 303.15 K",0.00241
same,solubility (mole fraction),"in ethyl acetate, 308.15 K",0.0028
same,solubility (mole fraction),"in ethyl acetate, 313.15 K",0.00342
same,solubility (mole fraction),"in ethyl acetate, 318.15 K",0.00433
same,solubility (mole fraction),"in ethyl acetate, 323.15 K",0.00554
same,solubility (mole fraction),"in ethyl acetate, 328.15 K",0.00735
same,solubility (mole fraction),"in ethyl acetate, 333.15 K",0.00951
same,solubility (mole fraction),"in ethyl formate, 293.15 K",0.00271
same,solubility (mole fraction),"in ethyl formate, 298.15 K",0.00284
same,solubility (mole fraction),"in ethyl formate, 303.15 K",0.00303
same,solubility (mole fraction),"in ethyl formate, 308.15 K",0.00339
same,solubility (mole fraction),"in ethyl formate, 313.15 K",0.00402
same,solubility (mole fraction),"in ethyl formate, 318.15 K",0.00493
same,solubility (mole fraction),"in ethyl formate, 323.15 K",0.00613
same,solubility (mole fraction),"in ethyl formate, 328.15 K",0.00775
same,solubility (mole fraction),"in ethyl formate, 333.15 K",0.01
same,solubility (mole fraction),"in isopropanol, 293.15 K",3.1e-05
same,solubility (mole fraction),"in isopropanol, 298.15 K",5e-05
same,solubility (mole fraction),"in isopropanol, 303.15 K",6.4e-05
same,solubility (mole fraction),"in isopropanol, 308.15 K",8.9e-05
same,solubility (mole fraction),"in isopropanol, 313.15 K",0.000123
same,solubility (mole fraction),"in isopropanol, 318.15 K",0.000164
same,solubility (mole fraction),"in isopropanol, 323.15 K",0.000215
same,solubility (mole fraction),"in isopropanol, 328.15 K",0.000296
same,solubility (mole fraction),"in isopropanol, 333.15 K",0.00038
same,solubility (mole fraction),"in m-xylene, 293.15 K",0.00176
same,solubility (mole fraction),"in m-xylene, 298.15 K",0.00206
same,solubility (mole fraction),"in m-xylene, 303.15 K",0.00248
same,solubility (mole fraction),"in m-xylene, 308.15 K",0.00303
same,solubility (mole fraction),"in m-xylene, 313.15 K",0.00368
same,solubility (mole fraction),"in m-xylene, 318.15 K",0.00444
same,solubility (mole fraction),"in m-xylene, 323.15 K",0.00531
same,solubility (mole fraction),"in m-xylene, 328.15 K",0.0062
same,solubility (mole fraction),"in m-xylene, 333.15 K",0.00722
same,solubility (mole fraction),"in mesitylene, 293.15 K",0.00238
same,solubility (mole fraction),"in mesitylene, 298.15 K",0.00259
same,solubility (mole fraction),"in mesitylene, 303.15 K",0.00279
same,solubility (mole fraction),"in mesitylene, 308.15 K",0.00309
same,solubility (mole fraction),"in mesitylene, 313.15 K",0.00348
same,solubility (mole fraction),"in mesitylene, 318.15 K",0.00397
same,solubility (mole fraction),"in mesitylene, 323.15 K",0.00459
same,solubility (mole fraction),"in mesitylene, 328.15 K",0.0055
same,solubility (mole fraction),"in mesitylene, 333.15 K",0.00652
same,solubility (mole fraction),"in methanol, 293.15 K",0.00019
same,solubility (mole fraction),"in methanol, 298.15 K",0.000263
same,solubility (mole fraction),"in methanol, 303.15 K",0.000324
same,solubility (mole fraction),"in methanol, 308.15 K",0.000401
same,solubility (mole fraction),"in methanol, 313.15 K",0.000504
same,solubility (mole fraction),"in methanol, 318.15 K",0.000632
same,solubility (mole fraction),"in methanol, 323.15 K",0.000774
same,solubility (mole fraction),"in methanol, 328.15 K",0.000956
same,solubility (mole fraction),"in methanol, 333.15 K",0.00121
same,solubility (mole fraction),"in n-butanol, 293.15 K",3.8e-05
same,solubility (mole fraction),"in n-butanol, 298.15 K",6e-05
same,solubility (mole fraction),"in n-butanol, 303.15 K",9.5e-05
same,solubility (mole fraction),"in n-butanol, 308.15 K",0.000142
same,solubility (mole fraction),"in n-butanol, 313.15 K",0.000198
same,solubility (mole fraction),"in n-butanol, 318.15 K",0.000278
same,solubility (mole fraction),"in n-butanol, 323.15 K",0.000384
same,solubility (mole fraction),"in n-butanol, 328.15 K",0.000546
same,solubility (mole fraction),"in n-butanol, 333.15 K",0.000785
same,solubility (mole fraction),"in n-propanol, 293.15 K",4.5e-05
same,solubility (mole fraction),"in n-propanol, 298.15 K",6.1e-05
same,solubility (mole fraction),"in n-propanol, 303.15 K",8.5e-05
same,solubility (mole fraction),"in n-propanol, 308.15 K",0.00012
same,solubility (mole fraction),"in n-propanol, 313.15 K",0.000186
same,solubility (mole fraction),"in n-propanol, 318.15 K",0.000278
same,solubility (mole fraction),"in n-propanol, 323.15 K",0.000413
same,solubility (mole fraction),"in n-propanol, 328.15 K",0.000595
same,solubility (mole fraction),"in n-propanol, 333.15 K",0.00083
same,solubility (mole fraction),"in o-xylene, 293.15 K",0.00213
same,solubility (mole fraction),"in o-xylene, 298.15 K",0.00236
same,solubility (mole fraction),"in o-xylene, 303.15 K",0.00277
same,solubility (mole fraction),"in o-xylene, 308.15 K",0.00327
same,solubility (mole fraction),"in o-xylene, 313.15 K",0.00377
same,solubility (mole fraction),"in o-xylene, 318.15 K",0.00441
same,solubility (mole fraction),"in o-xylene, 323.15 K",0.00513
same,solubility (mole fraction),"in o-xylene, 328.15 K",0.00598
same,solubility (mole fraction),"in o-xylene, 333.15 K",0.00701
same,solubility (mole fraction),"in p-xylene, 293.15 K",0.00172
same,solubility (mole fraction),"in p-xylene, 298.15 K",0.00199
same,solubility (mole fraction),"in p-xylene, 303.15 K",0.00228
same,solubility (mole fraction),"in p-xylene, 308.15 K",0.00267
same,solubility (mole fraction),"in p-xylene, 313.15 K",0.00323
same,solubility (mole fraction),"in p-xylene, 318.15 K",0.00395
same,solubility (mole fraction),"in p-xylene, 323.15 K",0.00494
same,solubility (mole fraction),"in p-xylene, 328.15 K",0.00647
same,solubility (mole fraction),"in p-xylene, 333.15 K",0.0085
same,solubility (mole fraction),"in tetrachloromethane, 298.15 K",2.2e-05
same,solubility (mole fraction),"in tetrachloromethane, 303.15 K",4.7e-05
same,solubility (mole fraction),"in tetrachloromethane, 308.15 K",9.5e-05
same,solubility (mole fraction),"in tetrachloromethane, 313.15 K",0.000168
same,solubility (mole fraction),"in tetrachloromethane, 318.15 K",0.000276
same,solubility (mole fraction),"in tetrachloromethane, 323.15 K",0.000426
same,solubility (mole fraction),"in tetrachloromethane, 328.15 K",0.000614
same,solubility (mole fraction),"in tetrachloromethane, 333.15 K",0.000854
same,solubility (mole fraction),"in toluene, 293.15 K",0.00135
same,solubility (mole fraction),"in toluene, 298.15 K",0.00154
same,solubility (mole fraction),"in toluene, 303.15 K",0.00201
same,solubility (mole fraction),"in toluene, 308.15 K",0.00268
same,solubility (mole fraction),"in toluene, 313.15 K",0.00349
same,solubility (mole fraction),"in toluene, 318.15 K",0.00448
same,solubility (mole fraction),"in toluene, 323.15 K",0.00551
same,solubility (mole fraction),"in toluene, 328.15 K",0.00669
same,solubility (mole fraction),"in toluene, 333.15 K",0.00781
